Test results: ChEMBL document CHEMBL3817813, “Exploiting the co-reliance of tumours upon transport of amino acids and lactate: Gln and Tyr conjugates of MCT1 inhibitors” (Medchemcomm, 2016)
Calls of active or inactive are those of the source. No cut-off for these calls is given here.

Tests used:
[1] = biological target: T1, Monocarboxylate transporter 1 (Homo sapiens) (UniProt P53985); experiment: Activity at MCT1 (unknown origin) using [14C]lactate by cell based lactate flux assay
T1 sequence (whole entry): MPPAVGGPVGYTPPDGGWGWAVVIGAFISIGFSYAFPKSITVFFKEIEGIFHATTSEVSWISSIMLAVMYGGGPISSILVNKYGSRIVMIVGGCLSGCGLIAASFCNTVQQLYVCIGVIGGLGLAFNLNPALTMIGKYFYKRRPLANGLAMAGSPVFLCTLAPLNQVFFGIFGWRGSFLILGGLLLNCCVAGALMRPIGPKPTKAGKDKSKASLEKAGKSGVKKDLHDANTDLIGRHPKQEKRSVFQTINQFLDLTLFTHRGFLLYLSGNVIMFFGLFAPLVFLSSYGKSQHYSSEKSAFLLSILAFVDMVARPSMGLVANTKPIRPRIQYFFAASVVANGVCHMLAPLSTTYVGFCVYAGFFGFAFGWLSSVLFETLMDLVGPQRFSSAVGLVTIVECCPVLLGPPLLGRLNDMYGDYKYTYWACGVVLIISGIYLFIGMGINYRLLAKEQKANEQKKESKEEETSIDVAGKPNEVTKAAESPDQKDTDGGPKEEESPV

MDA-MB-231 = experiment: Cytotoxicity against MCT1-deficient human MDA-MB-231 cells at 10 uM measured after 96 hrs by MTT assay; assay type: cell-based; details: mda-mb-231, 96 h
[2] = Drug uptake in Sprague-Dawley rat lung at 20 mg/kg, ip measured after 6 hrs by LC-MS/MS analysis; assay type: ADME, organism-based; details: read-out: Drug uptake
[3] = Drug uptake in Sprague-Dawley rat plasma at 20 mg/kg, ip measured after 7 days by LC-MS/MS analysis; assay type: ADME, organism-based
[4] = Drug uptake in Sprague-Dawley rat brain at 20 mg/kg, ip measured after 6 hrs by LC-MS/MS analysis; assay type: ADME, organism-based; details: read-out: Drug uptake
[5] = Drug uptake in Sprague-Dawley rat plasma at 20 mg/kg, ip measured after 24 hrs by LC-MS/MS analysis; assay type: ADME, organism-based
[6] = Drug uptake in Sprague-Dawley rat brain at 20 mg/kg, ip measured after 24 hrs by LC-MS/MS analysis; assay type: ADME, organism-based; details: read-out: Drug uptake
[7] = Drug uptake in Sprague-Dawley rat spleen at 20 mg/kg, ip measured after 6 hrs by LC-MS/MS analysis; assay type: ADME, organism-based; details: read-out: Drug uptake
[8] = Drug uptake in Sprague-Dawley rat spleen at 20 mg/kg, ip measured after 24 hrs by LC-MS/MS analysis; assay type: ADME, organism-based; details: read-out: Drug uptake
[9] = Drug uptake in Sprague-Dawley rat lung at 20 mg/kg, ip measured after 7 days by LC-MS/MS analysis; assay type: ADME, organism-based; details: read-out: Drug uptake
[10] = Drug uptake in Sprague-Dawley rat blood at 20 mg/kg, ip measured after 6 hrs by LC-MS/MS analysis; assay type: ADME, organism-based; details: whole blood, read-out: Drug uptake
[11] = Drug uptake in Sprague-Dawley rat kidney at 20 mg/kg, ip measured after 7 days by LC-MS/MS analysis; assay type: ADME, organism-based; details: read-out: Drug uptake
[12] = Drug uptake in Sprague-Dawley rat blood at 20 mg/kg, ip measured after 24 hrs by LC-MS/MS analysis; assay type: ADME, organism-based; details: whole blood, read-out: Drug uptake
[13] = Drug uptake in Sprague-Dawley rat liver at 20 mg/kg, ip measured after 6 hrs by LC-MS/MS analysis; assay type: ADME, organism-based; details: read-out: Drug uptake
[14] = Drug uptake in Sprague-Dawley rat blood at 20 mg/kg, ip measured after 7 days by LC-MS/MS analysis; assay type: ADME, organism-based; details: whole blood, read-out: Drug uptake
[15] = Drug uptake in NOD/SCID mouse tumor measured after 24 hrs; assay type: ADME, Neoplasm; details: read-out: Drug uptake
[16] = Drug uptake in Sprague-Dawley rat brain at 20 mg/kg, ip measured after 7 days by LC-MS/MS analysis; assay type: ADME, organism-based; details: read-out: Drug uptake
[17] = Drug uptake in Sprague-Dawley rat plasma at 20 mg/kg, ip measured after 6 hrs by LC-MS/MS analysis; assay type: ADME, organism-based
[18] = Drug uptake in Sprague-Dawley rat spleen at 20 mg/kg, ip measured after 7 days by LC-MS/MS analysis; assay type: ADME, organism-based; details: read-out: Drug uptake
[19] = Drug uptake in Sprague-Dawley rat liver at 20 mg/kg, ip measured after 7 days by LC-MS/MS analysis; assay type: ADME, organism-based; details: read-out: Drug uptake
[20] = Drug uptake in Sprague-Dawley rat lung at 20 mg/kg, ip measured after 24 hrs by LC-MS/MS analysis; assay type: ADME, organism-based; details: read-out: Drug uptake
[21] = Drug uptake in Sprague-Dawley rat liver at 20 mg/kg, ip measured after 24 hrs by LC-MS/MS analysis; assay type: ADME, organism-based; details: read-out: Drug uptake
[22] = Drug uptake in Sprague-Dawley rat kidney at 20 mg/kg, ip measured after 6 hrs by LC-MS/MS analysis; assay type: ADME, organism-based; details: read-out: Drug uptake
[23] = Drug uptake in Sprague-Dawley rat kidney at 20 mg/kg, ip measured after 24 hrs by LC-MS/MS analysis; assay type: ADME, organism-based; details: read-out: Drug uptake

In the case of `CC(C)Cc1nn(C)c(=O)c2c(SCCCO)n(Cc3ccc(C#CCCCNC(=O)[C@@H](N)CCC(N)=O)c4ccccc34)cc12`, the Activity [1] is reported as “Active” and the Activity (MDA-MB-231) is reported as “Non-toxic”.

With `CC(C)Cc1nn(C)c(=O)c2c(SCCCO)n(Cc3ccc(C#CCCCOc4ccc(C[C@H](N)C(=O)O)cc4)c4ccccc34)cc12` the concentration at 6 h [2] was 1540 nM, the concentration at 168 h [3] was 4 nM and the concentration at 6 h [4] was 110 nM. For the same compound, the Activity [1] was “Active”, the concentration at 24 h [5] was 12 nM and the concentration at 24 h [6] was 62 nM. The concentration at 6 h [7] was 2260 nM, the concentration at 24 h [8] was 1060 nM and the concentration at 168 h [9] was 110 nM. The concentration at 6 h [10] was 4330 nM, the concentration at 168 h [11] was 210 nM and the concentration at 24 h [12] was 76 nM. It also gave a concentration at 6 h [13] of 2500 nM, a concentration at 168 h [14] of 41 nM and a concentration at 24 h [15] of 300 nM. For the same compound, the Activity (MDA-MB-231) was “Non-toxic”, the concentration at 168 h [16] was 43 nM and the concentration at 6 h [17] was 3270 nM. For the same compound, the concentration at 168 h [18] was 190 nM, the concentration at 168 h [19] was 98 nM and the concentration at 24 h [20] was 520 nM. For the same compound, the concentration at 24 h [21] was 940 nM, the concentration at 6 h [22] was 1620 nM and the concentration at 24 h [23] was 960 nM.

For `CC(C)Cc1nn(C)c(=O)c2c(SCCCO)n(Cc3ccc(Br)c4ccccc34)cc12`, the Activity (MDA-MB-231) was “Non-toxic”.

With `CC(C)Cc1nn(C)c(=O)c2c(SCCCO)n(Cc3cnc(NCCCCCN)c4ccccc34)cc12` the Activity (MDA-MB-231) was “Non-toxic”.

For `CC(C)Cc1nn(C)c(=O)c2c(SCCCO)n(Cc3ccnc(Cl)c3)cc12`, the Activity (MDA-MB-231) was “Non-toxic”.

For `CC(C)Cc1nn(C)c(=O)c2c(SCCCO)n(Cc3cc(Cl)nc4ccccc34)cc12`, the Activity (MDA-MB-231) was “Non-toxic”.

With `CC(C)Cc1nn(C)c(=O)c2c(SCCCO)n(Cc3cnc(Cl)c4ccccc34)cc12` the Activity (MDA-MB-231) was “Non-toxic”.

For `CC(C)Cc1nn(C)c(=O)c2c(SCCCO)n(Cc3cc(NCCCCCNC(=O)[C@@H](N)CCC(N)=O)nc4ccccc34)cc12`, the Activity (MDA-MB-231) was “Non-toxic”.

For `CC(C)Cc1nn(C)c(=O)c2c(SCCCO)n(Cc3ccc(Cl)nc3)cc12`, the Activity (MDA-MB-231) was “Non-toxic”.

In the case of `CC(C)Cc1nn(C)c(=O)c2c(SCCCO)n(Cc3cnc(NCCCCCNC(=O)[C@@H](N)CCC(N)=O)c4ccccc34)cc12`, the Activity [1] is reported as “Active” and the Activity (MDA-MB-231) is reported as “Non-toxic”.

Work on `CC(C)Cc1nn(C)c(=O)c2c(SCCCO)n(Cc3cccc4ccccc34)cc12` yielded a concentration at 6 h [2] of 61 nM, a concentration at 6 h [4] of 190 nM and a concentration at 24 h [5] of 4 nM. The concentration at 24 h [6] was 270 nM, the concentration at 6 h [7] was 740 nM and the concentration at 24 h [8] was 420 nM. It also gave a concentration at 6 h [10] of 140 nM, a concentration at 24 h [12] of 63 nM and a concentration at 6 h [13] of 63 nM. For the same compound, the Activity (MDA-MB-231) was “Non-toxic”, the concentration at 6 h [17] was 27 nM and the concentration at 168 h [18] was 43 nM. It also gave a concentration at 24 h [20] of 74 nM, a concentration at 24 h [21] of 60 nM and a concentration at 6 h [22] of 120 nM. It also gave a concentration at 24 h [23] of 160 nM.

For `CC(C)Cc1nn(C)c(=O)c2c(SCCCO)n(Cc3ccnc(NCCCCCNC(=O)[C@@H](N)CCC(N)=O)c3)cc12`, the Activity (MDA-MB-231) was “Non-toxic”.

For `CC(C)Cc1nn(C)c(=O)c2c(SCCCO)n(Cc3ccnc(NCCCCCN)c3)cc12`, the Activity (MDA-MB-231) was “Non-toxic”.

With `CC(C)Cc1nn(C)c(=O)c2c(SCCCO)n(Cc3ccc(NCCCCCN)nc3)cc12` the Activity (MDA-MB-231) was “Non-toxic”.

In the case of `CC(C)Cc1nn(C)c(=O)c2c(SCCCO)n(Cc3ccc(NCCCCCNC(=O)[C@@H](N)CCC(N)=O)nc3)cc12`, the Activity (MDA-MB-231) is reported as “Non-toxic”.

With `CC(C)Cc1nn(C)c(=O)c2c(SCCCO)n(Cc3cc(NCCCCCN)nc4ccccc34)cc12` the Activity (MDA-MB-231) was “Non-toxic”.
